system: U23674 (mouse alveolar rhabdomyosarcoma primary culture);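 also: alveolar rhabdomyosarcoma tumor culture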

Point of comparison: CCCN1CCC(Oc2cc(Nc3nc(Nc4cccc(F)c4C(N)=O)c4cc[nH]c4n3)c(OC)cc2Cl)CC1, IC50 cell viability 3.2 µM. Against it:
- O=C(Nc1n[nH]c2nc(-c3ccc(O)cc3)c(Br)cc12)C1CC1 — higher, > 10 µM
- COc1cccc(-n2ncc3c(N/N=C/c4ccc(F)cc4)ncnc32)c1 — higher, > 10 µM
- CCn1c(-c2nonc2N)nc2c(C#CC(C)(C)O)ncc(OCC3CCNCC3)c21 — higher, > 10 µM
- CN1CCN(C(=O)c2ccc(NC(=O)Nc3ccc(N(C)c4ccnc(Nc5ccc(CS(C)(=O)=O)cc5)n4)cc3)cc2)CC1 — higher, > 10 µM
- Nc1nc(-c2ccc(F)cc2)c(-c2ccc3ncccc3n2)s1 — higher, > 10 µM
- CCn1c(-c2nonc2N)nc2c(C#CC(C)(C)O)ncc(OCC3CCCN3)c21 (centres undefined) — 1.6-fold higher, 5.2 µM
- CN(C)C(=O)O[C@@H]1CN[C@@H](C#Cc2cc3ncnc(Nc4ccc(OCc5cccc(F)c5)c(Cl)c4)c3s2)C1 — higher, > 10 µM
- CCn1c(-c2nonc2N)nc2c(C#CC(C)(C)O)nc(OC[C@@H](N)c3ccccc3)cc21 — higher, > 10 µM
- COc1cccc(-n2ncc3c(N/N=C/c4ccc(C)cc4)ncnc32)c1 — higher, > 10 µM
- COc1cccc(-n2ncc3c(N/N=C/c4ccncc4)ncnc32)c1 — higher, > 10 µM
- COC(=O)Nc1nc2ccc(Oc3cccc(NC(=O)Nc4cc(C(F)(F)F)ccc4F)c3)cc2[nH]1 — higher, > 10 µM
- COc1ccc(-c2ccncc2)cc1C(N)=O — higher, > 10 µM
- CCn1c(-c2nonc2N)nc2ccncc21 — higher, > 10 µM
- Clc1ccc(CNc2nccc(-c3cnn4ncccc34)n2)cc1 — higher, > 10 µM
- NC(=O)c1cccc(Nc2nccc(Nc3cccc(F)c3)n2)c1 — higher, > 10 µM
- Cc1ccc2c(-c3ccnc(Nc4ccccc4)n3)c(-c3ccc(F)cc3)nn2n1 — higher, > 10 µM
- COc1cc2ncn(-c3cc(O[C@@H](C)c4ccccc4Cl)c(C(N)=O)s3)c2cc1OC — higher, > 10 µM
- Fc1cccc(COc2ccc(Nc3ncncc3C#Cc3ccccc3)cc2Cl)c1 — higher, > 10 µM
- Nc1nc(-c2cccc(Cl)c2)c(-c2ccc3ncccc3n2)s1 — higher, > 10 µM
- CCS(=O)(=O)c1ccc(OC)c(Nc2nccc(N(C)c3ccc4c(C)[nH]nc4c3)n2)c1 — higher, > 10 µM
- COc1ccc(-c2oc3ncnc(N)c3c2-c2ccc(NC(=O)Nc3cc(C(F)(F)F)ccc3F)cc2)cc1 — higher, > 10 µM
- COc1cc2ncn(-c3cc(OCc4ccccc4S(C)(=O)=O)c(C#N)s3)c2cc1OC — higher, > 10 µM
- CC1=C(C(=O)Nc2cc(Cl)c3[nH]ncc3c2)C(c2ccc(C(F)(F)F)cc2)CC(=O)N1 (centres undefined) — higher, > 10 µM
- N#Cc1ccc(Oc2nccc(-c3c(-c4ccc(F)cc4)ncn3C3CCNCC3)n2)cc1 — higher, > 10 µM
- Cc1cc(O)cc(C)c1/C=C/c1cncc(C(=O)OC(C)(C)C)c1 — higher, > 10 µM
- CN(C)CCCNc1nccc(-c2c(-c3ccc(F)cc3)nn3cc(C(F)(F)F)ccc23)n1 — within 1.5-fold, 2.2 µM
- CC(C)c1ccc(Nc2nccc(-c3cnn4ncccc34)n2)cc1 — higher, > 10 µM
- CCN1CCC(CC(=O)Nc2n[nH]c3nc(-c4cccs4)c(Br)cc23)CC1 — 2.5-fold lower, 1.3 µM
- COc1ccc(-c2cc3c(N)ncnc3o2)cc1 — higher, > 10 µM
- CS(=O)(=O)CCNCc1ccc(-c2ccc3ncnc(Nc4ccc(OCc5ccccc5)c(C(F)(F)F)c4)c3c2)o1 — higher, > 10 µM
- COc1ccc2[nH]c3c4[nH]c5ccc(OC)cc5c4c4c(c3c2c1)C(=O)NC4=O — higher, > 10 µM
- Cc1nnc(-c2cccc(-c3ccc(C(=O)NCC4CC4)cc3)c2)o1 — higher, > 10 µM
- CC(=O)Nc1cccc(C#Cc2cncnc2Nc2ccc(OCc3cccc(F)c3)c(Cl)c2)c1 — higher, > 10 µM
- COc1cc(Nc2ncc(-c3ccccc3)o2)cc(OC)c1 — higher, > 10 µM
- NC(=O)c1sc(-n2cnc3ccccc32)cc1OCc1ccccc1Br — higher, > 10 µM
- C[C@@H](Oc1cc(-n2cnc3ccc(OCC4CCN(C)CC4)cc32)sc1C(N)=O)c1ccccc1Cl — 2.5-fold lower, 1.3 µM
- CC1(C)CC(n2cnc(-c3ccc(F)cc3)c2-c2ccnc(N)n2)CC(C)(C)N1 — 16-fold lower, 0.2 µM
- CN1CCC(n2cnc(-c3ccc(F)cc3)c2-c2ccnc(NCCO)n2)CC1 — higher, > 10 µM
- Cc1cc(-c2ccccn2)cc(C)c1/C=C/c1cncc(-c2nn[nH]n2)c1 — higher, > 10 µM
- COc1ccc(-c2cc(-c3cn[nH]c3-c3ccccn3)ccn2)cc1 — higher, > 10 µM
- Fc1ccc(-c2nc3n(c2-c2ccncc2)CCS3)cc1 — higher, > 10 µM
- O=C1NC(=O)C(N2CCc3ccccc32)=C1c1ccc(Cl)cc1 — higher, > 10 µM
- Nc1ncnc2occ(-c3ccc(NC(=O)Nc4cccc(C(F)(F)F)c4)cc3)c12 — 1.6-fold higher, 5.2 µM
- CC1=C(C(=O)Nc2ccc3[nH]ncc3c2)C(c2ccc3ccccc3c2)CC(=O)N1 (centres undefined) — higher, > 10 µM
- COC(=O)Nc1nc2ccc(Oc3ccc(NC(=O)Nc4cccc(Br)c4)cc3)cc2[nH]1 — higher, > 10 µM
- CCn1c(-c2nonc2N)nc2cncc(C(=O)NCCNC)c21 — higher, > 10 µM
- CCN1CCC(C(=O)Nc2n[nH]c3nnc(-c4cccc(F)c4F)cc23)CC1 — higher, > 10 µM
- NS(=O)(=O)c1ccc(N=Nc2c(O)[nH]c3ccc(Cl)cc23)cc1 — higher, > 10 µM
- NS(=O)(=O)c1cccc(-c2ccc3c(NC(=O)C4CC4)n[nH]c3c2)c1 — higher, > 10 µM
- NS(=O)(=O)c1ccc(Nc2ncc(-c3ccccc3)o2)cc1 — higher, > 10 µM
- COc1cccc(-n2cnc3c(N/N=C/c4ccncc4)ncnc32)c1 — higher, > 10 µM
- COc1ccc(CNC(=O)c2ccc(-c3cc(-c4nnc(C)o4)ccc3C)cc2)cc1 — higher, > 10 µM
- Fc1ccc(-c2ncn(C3CCNCC3)c2-c2ccnc(Oc3ccccc3)n2)cc1 — within 1.5-fold, 3.3 µM
- NC(=O)Cc1ccccc1Oc1nccc(-c2c(-c3ccc(F)cc3)ncn2C2CCNCC2)n1 — higher, > 10 µM
- COc1ccc2cc(-c3c(-c4ccncc4)nc(-c4ccc([S+](C)[O-])cc4)n3C)ccc2c1 (centres undefined) — higher, > 10 µM
- NS(=O)(=O)c1cccc(Nc2cc(-c3ccc(F)cc3)[nH]n2)c1 — higher, > 10 µM
- Nc1ncnc2occ(-c3ccc(NC(=O)Nc4cc(C(F)(F)F)ccc4F)cc3)c12 — higher, > 10 µM
- NS(=O)(=O)c1ccc(N=Cc2c(O)[nH]c3ccc4ncsc4c23)cc1 — higher, > 10 µM
- COc1cc2c(cc1Nc1nc(N3CCc4ccccc43)c3cc[nH]c3n1)N(C(=O)CN(C)C)CC2 — 64-fold lower, 0.05 µM
- CS(=O)(=O)Nc1ccc(-c2cc(-c3ccccc3)cc(C(N)=O)c2N)cc1 — higher, > 10 µM
- CC(C)(CO)CNC(=O)c1ccc2[nH]c(O)c(N=Nc3ccc(S(N)(=O)=O)cc3)c2c1 — higher, > 10 µM
- Fc1ccc(-c2ncn(CCCN3CCOCC3)c2-c2ccncc2)cc1 — higher, > 10 µM
- Fc1ccc(-c2c(-c3ccncc3)nc3n2CCS3)cc1 — higher, > 10 µM
- Cc1nn(C)c2cc(N(C)c3ccnc(Nc4cccc(S(N)(=O)=O)c4)n3)ccc12 — higher, > 10 µM
- Cc1cccc(-c2[nH]ncc2-c2ccc3ncccc3n2)n1 — higher, > 10 µM
- c1cnn2ncc(-c3ccnc(NCCCN4CCOCC4)n3)c2c1 — higher, > 10 µM
- CNC(=O)c1cc(-c2ccc(F)cc2)cc(-c2ccc(S(=O)(=O)N3CCCC3)cc2)c1N — higher, > 10 µM
- COc1ccc2cc(-c3c(-c4ccncc4)nc(-c4ccc(S(C)(=O)=O)cc4C)n3C)ccc2c1 — higher, > 10 µM
- COc1cc2ncn(-c3cc(OCCc4ccccc4)c(C(N)=O)s3)c2cc1OC — higher, > 10 µM
- Cc1ccc(NC(=O)c2ccoc2)cc1-c1ccc(C(=O)NCC2CC2)cc1 — higher, > 10 µM
- Cc1ccc(Nc2ccnc(Nc3cccc(C(N)=O)c3)n2)cc1O — higher, > 10 µM
- Nc1nc(-c2ccccn2)c(-c2ccc3ncccc3n2)s1 — higher, > 10 µM
- COc1ccc(C2=C(N3CCc4ccccc43)C(=O)NC2=O)cc1 — higher, > 10 µM
- CNC(=O)c1sc(-n2cnc3cc(OC)c(OC)cc32)cc1OCc1ccccc1C(F)(F)F — higher, > 10 µM
- O=C1NC(=O)C(c2cccc(Cl)c2)=C1Nc1ccc(Cl)c(C(=O)O)c1 — higher, > 10 µM
- NC(=O)c1cc(-c2ccncc2)cc(-c2ccccc2)c1N — higher, > 10 µM
- COc1cc2c(cc1Nc1nc(Nc3ccsc3C(N)=O)c3cc[nH]c3n1)N(C(=O)CN(C)C)CCC2 — 64-fold lower, 0.05 µM
- Fc1cccc(COc2ccc(Nc3ncnc4sc(-c5ccco5)cc34)cc2Cl)c1 — higher, > 10 µM
- COc1ccc(Nc2ncc(-c3ccccc3)o2)cc1OC — higher, > 10 µM
- COc1cc2ncn(-c3cc(OCc4cccs4)c(C(N)=O)s3)c2cc1OC — higher, > 10 µM
- CCOc1ccc2c(-c3ccnc(Nc4cc(OC)cc(C(F)(F)F)c4)n3)cnn2n1 — higher, > 10 µM
- CCn1c(-c2nonc2N)nc2c(C#CC(C)(C)O)ncc(OC3CCNCC3)c21 — higher, > 10 µM
- OCc1ccc(-c2nc(-c3ccc4c(c3)OCO4)c(-c3ccccn3)[nH]2)cc1 — higher, > 10 µM
- COc1ccc(-c2ccc3c(NC(=O)C4CC4)n[nH]c3n2)cc1 — higher, > 10 µM
- NS(=O)(=O)c1cccc(-c2cc3ccncc3cc2OCc2ccccc2)c1 — higher, > 10 µM
- COc1ccc(COc2ccc(Cc3cnc(N)nc3N)cc2OC)cc1 — higher, > 10 µM
- CS(=O)(=O)CCNCc1cc(-c2cc3c(Nc4ccc(OCc5cccc(F)c5)c(Cl)c4)ncnc3s2)cs1 — higher, > 10 µM
- COC(=O)Nc1nc2ccc(Oc3ccc(NC(=O)Nc4cccc(C(=O)O)c4)cc3)cc2[nH]1 — higher, > 10 µM
- Fc1ccc(-c2cc(-c3cn[nH]c3-c3ccccn3)ccn2)cc1 — higher, > 10 µM

system: PCB490-3 (human epithelioid sarcoma primary culture)
Procedure: (§1)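 Roche open-access kinase inhibitor screen (223 compounds) on human epithelioid sarcoma primary cultures from three spatially distinct regions of tumor PCB490. 384-well plates, 72 h, CellTiter-Glo viability; IC50 by Hill curve fit. 100000 nM = no IC50 reached. Compound ids carry a plate-well prefix, which is stripped.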

Nc1c(C(=O)c2ccc(C#CCN3CCOCC3)cc2)cnn1-c1ccc(F)cc1 and COc1cc[nH]c1/C=C1\C(=O)Nc2ccc(F)c(C#C[C@@H](O)[C@@H](N)[C@@H](C)O)c21 cannot be ordered by IC50 cell viability: over 100 µM for the first, over 100 µM for the second.

Cc1nc2sc3c(N)ncnc3c2c(C)c1C gave an IC50 cell viability of over 100 µM.

system: PCB490-4 (human epithelioid sarcoma primary culture)
Procedure: as §1

Point of comparison: COc1cc[nH]c1/C=C1\C(=O)Nc2ccc(F)c(C#C[C@@H](O)[C@@H](N)[C@@H](C)O)c21, IC50 cell viability 4.44 µM. Against it:
- Nc1c(C(=O)c2ccc(C#CCN3CCOCC3)cc2)cnn1-c1ccc(F)cc1 — higher, > 100 µM
- Cc1nc2sc3c(N)ncnc3c2c(C)c1C — higher, > 100 µM

system: PCB490-5 (human epithelioid sarcoma primary culture)
Procedure: as §1

Point of comparison: COc1cc[nH]c1/C=C1\C(=O)Nc2ccc(F)c(C#C[C@@H](O)[C@@H](N)[C@@H](C)O)c21, IC50 cell viability 2.07 µM. Against it:
- Nc1c(C(=O)c2ccc(C#CCN3CCOCC3)cc2)cnn1-c1ccc(F)cc1 — higher, > 100 µM
- Cc1nc2sc3c(N)ncnc3c2c(C)c1C — higher, > 100 µM
